The assay addresses T1, PTP1B catalytic domain, C215S (Homo sapiens, UniProt P18031, C215S).
T1 sequence (P18031 1-229 C215S): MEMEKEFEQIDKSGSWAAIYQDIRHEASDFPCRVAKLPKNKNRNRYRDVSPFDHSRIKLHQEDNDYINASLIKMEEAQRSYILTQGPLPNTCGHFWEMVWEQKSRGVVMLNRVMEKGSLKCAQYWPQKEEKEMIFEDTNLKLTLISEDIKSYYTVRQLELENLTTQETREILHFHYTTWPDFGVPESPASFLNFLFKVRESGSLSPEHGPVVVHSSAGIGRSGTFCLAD
Put plainly: biochemical. The assay is classed as binding. Particulars: competitive FP titration vs CF-ppIRS1 100 nM, protein fixed, unlabelled peptide varied; n = 3 technical replicates. The source says: The two SH2 domains of PI3KR1 (UniProt P27986; nSH2: 321−433 cSH2: 614–724) were cloned from HEK293T cDNA pool, and subsequently ligated into a modified pET vector encoding maltose binding protein (MBP) tag on the N-terminal and a hexa-His tag on the C-terminal end of the construct. Similarly, the catalytic, tyrosine phosphatase domains of PTPRε (P23469 first domain: 107–399) and PTP1B (P18031; 1–229) were cloned from a HEK293T cDNA pool, and inserted into a pBH4 vector encoding an N-terminal His6 tag (for the final binding experiments, an MBP-tagged version of PTPRε was employed). […] Wild-type C-terminal FLAG-tagged human IRS1 was cloned between HindIII-NotI sites of pcDNA3.1(+) vector (#V79020 Invitrogen, Waltham MA USA). Ser/Ala mutant IRS1 was generated by replacing the region of S616/S636/S666/S736 positions with a cassette carrying S616A/S636A/S666A/S736A mutations. All constructs were validated by complete Sanger sequencing before protein expression and purification. The oligonucleotide sequences used are shown on Supplementary table 4.
Fluorescence polarization was always measured in triplicates, on black Corning low volume round bottom 384-well plates (with 10 ul volumes), using a BioTek Cytatation 5 reader, with the green fluorescent protein (GFP) cube filter set (ex: 485/20, em: 528/20, gain: 50, height: 7.5). Fluorescence polarization data was evaluated on Origin 2018. The dissociation constants (Kd) were determined by using the appropriate quadratic and cubic equations inserted as a user-defined function and applying nonlinear fit until convergence. The fitting formulae are shown at Supplementary note 1. Kd ratio distributions for Fig. 6 were calculated using a Monte-Carlo approach (Supplementary note 2).
Supplementary note 1. Curve fitting of fluorescence polarization (FP) measurements.
To evaluate polarization values from direct and competitive titrations, we used the following fitting formulae in Origin 2018, as detailed below.
Direct titration curves were fitted according to the following formula: […]
Where Imin is the minimal anisotropy, Imax is the (asymptotically estimated) maximal intensity. K0 is the starting concentration of the protein, while T0 is the (fixed) concentration of the labelled peptide and Kd is the dissociation constant.
Competitive titration curves were fitted with a different formula (In addition to those defined above, constants KdT KdB B0 T0 and D0 here refer to the Kd derived from the direct titration, the unknown Kd of the analyte, the labelled peptide concentration, the competitor peptide concentration as well as the protein concentration, respectively).
The ± sign refers to two different scenarios, depending on the sign of discriminant (KdT > KdB or […]). For unknown analytes, the choice of sign is not arbitrary, as the fitting will not converge unless the appropriate formula is chosen: […]
Where A, B and C correspond to the following expressions: […]

By Kd is commonly meant the equilibrium constant for the complex coming apart. With `CSCC[C@H](NC(=O)[C@@H]1CCCN1C(=O)[C@H](CCSC)NC(=O)[C@H](Cc1ccc(OP(=O)(O)O)cc1)NC(=O)[C@H](CC(=O)O)NC(=O)CNC(=O)[C@H](CO)NC(=O)CNC(=O)[C@H](CCCCN)NC(=O)[C@H](CCCNC(=N)N)NC(=O)CN)C(=O)N[C@@H](COP(=O)(O)O)C(=O)N1CCC[C@H]1C(=O)N[C@@H](CCCCN)C(=O)N[C@@H](CO)C(=O)O` [ppIRS1], binding was characterised by a dissociation constant (Kd) of 0.0613 ± 0.0102 µM.

`CSCC[C@H](NC(=O)[C@@H]1CCCN1C(=O)[C@H](CCSC)NC(=O)[C@H](Cc1ccc(OP(=O)(O)O)cc1)NC(=O)[C@H](CC(=O)O)NC(=O)CNC(=O)[C@H](CO)NC(=O)CNC(=O)[C@H](CCCCN)NC(=O)[C@H](CCCNC(=N)N)NC(=O)CN)C(=O)N[C@@H](CO)C(=O)N1CCC[C@H]1C(=O)N[C@@H](CCCCN)C(=O)N[C@@H](CO)C(=O)O` [p0IRS1]: binding was put at a Kd of 1.14 ± 0.0851 µM.
